Our source for the IC50 values is BindingDB's records for doi:10.1021/acsmedchemlett.8b00158 (Utah State University, 2018).

A short description of this assay: Inhibition of recombinant human Cx26 expressed in Escherichia coli LB2003 assessed as reduction in cell growth measured after 18 hrs.

As usually defined, the IC50 is the point on the concentration scale where inhibition reaches its midpoint.

As to `NC[C@H]1O[C@H](O[C@H]2[C@H](O)[C@@H](O[C@@H]3O[C@H](COCc4cccc5ccccc45)[C@@H](OCc4cccc5ccccc45)[C@H](N)[C@H]3O)[C@H](N)C[C@@H]2N)[C@H](O)[C@@H](O)[C@@H]1O`, the IC50 is 6.6 µM. In the case of `CO[C@@H]1[C@@H](O[C@@H]2O[C@H](COCc3ccccc3)[C@@H](OCc3ccccc3)[C@H](N)[C@H]2OC)[C@H](N)C[C@H](N)[C@H]1O[C@H]1O[C@H](CN)[C@@H](OC)[C@H](OC)[C@H]1OC` it was 8.4 µM; in that of `CCCCCCO[C@H]1[C@H](N)[C@@H](O)[C@H](O[C@@H]2[C@@H](O)[C@H](O[C@H]3O[C@H](CN)[C@@H](O)[C@H](O)[C@H]3O)[C@@H](N)C[C@H]2N)O[C@@H]1CO`, 13.5 µM. The figure for `NC[C@H]1O[C@H](O[C@H]2[C@H](O)[C@@H](O[C@@H]3O[C@H](COCc4ccc5ccccc5c4)[C@@H](OCc4ccc5ccccc5c4)[C@H](N)[C@H]3O)[C@H](N)C[C@@H]2N)[C@H](O)[C@@H](O)[C@@H]1O` is 4.9 µM; for `NC[C@H]1O[C@H](O[C@H]2[C@H](O)[C@@H](O[C@@H]3O[C@H](COCc4cccc(-c5ccccc5)c4)[C@@H](OCc4cccc(-c5ccccc5)c4)[C@H](N)[C@H]3O)[C@H](N)C[C@@H]2N)[C@H](O)[C@@H](O)[C@@H]1O` it is 6.2 µM; for `NC[C@H]1O[C@H](O[C@H]2[C@H](O)[C@@H](O[C@@H]3O[C@H](COCc4ccc(Cl)cc4)[C@@H](OCc4ccc(Cl)cc4)[C@H](N)[C@H]3O)[C@H](N)C[C@@H]2N)[C@H](O)[C@@H](O)[C@@H]1O` it is 2.5 µM.

As for `CCCCCCOC[C@H]1O[C@@H](O[C@@H]2[C@@H](O)[C@H](O[C@H]3O[C@H](CN)[C@@H](O)[C@H](O)[C@H]3O)[C@@H](N)C[C@H]2N)[C@H](O)[C@@H](N)[C@@H]1OCCCCCC`, the IC50 came to 6.2 µM. For the compound `COc1ccc(COC[C@H]2O[C@@H](O[C@@H]3[C@@H](O)[C@H](O[C@H]4O[C@H](CN)[C@@H](O)[C@H](O)[C@H]4O)[C@@H](N)C[C@H]3N)[C@H](O)[C@@H](N)[C@@H]2OCc2ccc(OC)cc2)cc1`, the IC50 came out at 13 µM. In the case of `NC[C@H]1O[C@H](O[C@H]2[C@H](O)[C@@H](O[C@@H]3O[C@H](COCc4ccc(F)cc4)[C@@H](OCc4ccc(F)cc4)[C@H](N)[C@H]3O)[C@H](N)C[C@@H]2N)[C@H](O)[C@@H](O)[C@@H]1O` it was 8.1 µM. The figure for `Cc1ccc(COC[C@H]2O[C@@H](O[C@@H]3[C@@H](O)[C@H](O[C@H]4O[C@H](CN)[C@@H](O)[C@H](O)[C@H]4O)[C@@H](N)C[C@H]3N)[C@H](O)[C@@H](N)[C@@H]2OCc2ccc(C)cc2)cc1` is 4.3 µM; for `CCCCCCCCCOC[C@H]1O[C@@H](O[C@@H]2[C@@H](O)[C@H](O[C@H]3O[C@H](CN)[C@@H](O)[C@H](O)[C@H]3O)[C@@H](N)C[C@H]2N)[C@H](O)[C@@H](N)[C@@H]1OCCCCCCCCC` it is 18.8 µM; for `CCCCCCCCOC[C@H]1O[C@@H](O[C@@H]2[C@@H](O)[C@H](O[C@H]3O[C@H](CN)[C@@H](O)[C@H](O)[C@H]3O)[C@@H](N)C[C@H]2N)[C@H](O)[C@@H](N)[C@@H]1OCCCCCCCC` it is 13.6 µM.

As for `CCCCOC[C@H]1O[C@@H](O[C@@H]2[C@@H](O)[C@H](O[C@H]3O[C@H](CN)[C@@H](O)[C@H](O)[C@H]3O)[C@@H](N)C[C@H]2N)[C@H](O)[C@@H](N)[C@@H]1OCCCC`, the IC50 came to 19 µM.
